Patent publication US5502035A, “N-terminus modified analogs of LHRH” (Tap Holdings Inc., priority 1994, dated 1996)
Non-standard residues stand in square brackets, D forms with d. Residues, ends and D or L forms follow the SMILES beside them. Groups on a side chain read outwards from the residue. *: point of attachment. Shikimoyl = O=C(C1=C[C@@H](O)[C@@H](O)[C@H](O)C1)*; X4 = O=C([C@@H](O)[C@@H](O)[C@H](O)[C@@H](O)CO)*; dPhe(4-Cl) = N[C@H](Cc1ccc(Cl)cc1)C(=O)O; d1Nal = N[C@H](Cc1cccc2ccccc12)C(=O)O; d2Nal = N[C@H](Cc1ccc2ccccc2c1)C(=O)O; NMeY = CN[C@@H](Cc1ccc(O)cc1)C(=O)O; NMeF = CN[C@@H](Cc1ccccc1)C(=O)O; d3Pal = N[C@H](Cc1cccnc1)C(=O)O; NMeL = CN[C@@H](CC(C)C)C(=O)O; Nicotinoyl = O=C(c1cccnc1)*; Aze = O=C(O)[C@@H]1CCN1

Biological target: T1, LHRH (Rattus norvegicus, UniProt P30969)
T1 construct: endogenous in cells; host or cells: rat pituitary cells (own knowledge of the cited Haviv 1989 method)
T1 sequence (P30969 1-327): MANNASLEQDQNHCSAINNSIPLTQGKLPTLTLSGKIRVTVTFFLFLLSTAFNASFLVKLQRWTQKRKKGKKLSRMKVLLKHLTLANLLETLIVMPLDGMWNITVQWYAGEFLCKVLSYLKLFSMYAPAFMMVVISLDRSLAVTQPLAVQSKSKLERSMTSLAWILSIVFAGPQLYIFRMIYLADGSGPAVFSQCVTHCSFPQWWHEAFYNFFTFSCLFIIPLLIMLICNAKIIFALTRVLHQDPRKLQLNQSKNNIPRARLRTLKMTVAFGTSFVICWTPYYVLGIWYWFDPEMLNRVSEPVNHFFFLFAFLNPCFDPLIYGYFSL
Assay: in vitro test for LHRH antagonist potency (pA2)
Type: cell-based
Details: negative logarithm of the antagonist concentration required to shift the response curve produced by the agonist leuprolide to two-fold higher concentration
How it was run: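 Antagonism read against the agonist leuprolide on rat LHRH receptor; value is pA2, the −log of antagonist concentration that doubles the agonist concentration needed for the same response.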

**Q.** For `CC(C)C[C@H](NC(=O)[C@@H](CCCCNC(=O)C1=C[C@@H](O)[C@@H](O)[C@H](O)C1)NC(=O)[C@H](Cc1ccc(O)cc1)N(C)C(=O)[C@H](CO)NC(=O)[C@@H](Cc1cccc2ccccc12)NC(=O)[C@@H](Cc1ccc(Cl)cc1)NC(=O)[C@@H](Cc1ccc2ccccc2c1)NC(=O)CNC(=O)C1=C[C@@H](O)[C@@H](O)[C@H](O)C1)C(=O)N[C@@H](CCCNC(=N)N)C(=O)N1CCC[C@H]1C(=O)N[C@H](C)C(N)=O` [Example 16, N-Shikimyl-Gly-D2Nal-D4ClPhe-D 1Nal-Ser-NMeTyr-DLys(Shik)-Leu-Arg-Pro-DAlaNH2] (Shikimoyl-G[d2Nal][dPhe(4-Cl)][d1Nal]S[NMeY][dK](Shikimoyl)LRP[dA]-NH2), which Kb is on record?
**A.** 0.0288 nM

**Q.** For `CC(C)C[C@H](NC(=O)[C@@H](CCCCNC(=O)C1=C[C@@H](O)[C@@H](O)[C@H](O)C1)NC(=O)[C@H](Cc1ccccc1)N(C)C(=O)[C@H](CO)NC(=O)[C@@H](Cc1cccnc1)NC(=O)[C@@H](Cc1ccc(Cl)cc1)NC(=O)[C@@H](Cc1ccc2ccccc2c1)NC(=O)CNC(=O)C1=C[C@@H](O)[C@@H](O)[C@H](O)C1)C(=O)N[C@@H](CCCNC(=N)N)C(=O)N1CCC[C@H]1C(=O)N[C@H](C)C(N)=O` [Example 17, N-Shikimyl-Gly-D2Nal-D4ClPhe-D3Pal-Ser-NMePhe-DLys(Shik)-Leu-Arg-Pro-DAlaNH2] (Shikimoyl-G[d2Nal][dPhe(4-Cl)][d3Pal]S[NMeF][dK](Shikimoyl)LRP[dA]-NH2), which Kb is on record?
**A.** 0.0112 nM

**Q.** How did the Kb turn out when `CC[C@H](C)[C@H](NC(=O)[C@@H](CCCCNC(=O)C1=C[C@@H](O)[C@@H](O)[C@H](O)C1)NC(=O)[C@H](Cc1ccc(O)cc1)N(C)C(=O)[C@H](CO)NC(=O)[C@@H](Cc1cccnc1)NC(=O)[C@@H](Cc1ccc(Cl)cc1)NC(=O)[C@@H](Cc1ccc2ccccc2c1)NC(=O)CNC(=O)C1=C[C@@H](O)[C@@H](O)[C@H](O)C1)C(=O)N[C@@H](CCCNC(=N)N)C(=O)N1CCC[C@H]1C(=O)N[C@H](C)C(N)=O` [Example 18a, N-Shikimyl-Gly-D2Nal-D4ClPhe-D3Pal-Ser-NMeTyr-DLys(Shik)-Ile-Arg-Pro-DAlaNH2] (Shikimoyl-G[d2Nal][dPhe(4-Cl)][d3Pal]S[NMeY][dK](Shikimoyl)IRP[dA]-NH2) was run?
**A.** 0.0166 nM

**Q.** Which Kb does the source give for `CC(C)C[C@@H](C(=O)N[C@@H](CCCNC(=N)N)C(=O)N1CCC[C@H]1C(=O)N[C@H](C)C(N)=O)N(C)C(=O)[C@@H](CCCCNC(=O)C1=C[C@@H](O)[C@@H](O)[C@H](O)C1)NC(=O)[C@H](Cc1ccc(O)cc1)N(C)C(=O)[C@H](CO)NC(=O)[C@@H](Cc1cccnc1)NC(=O)[C@@H](Cc1ccc(Cl)cc1)NC(=O)[C@@H](Cc1ccc2ccccc2c1)NC(=O)CNC(=O)C1=C[C@@H](O)[C@@H](O)[C@H](O)C1` [Example 18b, N-Shikimyl-Gly-D2Nal-D4ClPhe-D3Pal-Ser-NMeTyr-DLys(Shik)-NMeLeu-Arg-Pro-DAlaNH2] (Shikimoyl-G[d2Nal][dPhe(4-Cl)][d3Pal]S[NMeY][dK](Shikimoyl)[NMeL]RP[dA]-NH2) here?
**A.** 0.00912 nM

**Q.** Which Kb does the source give for `CC(C)C[C@H](NC(=O)[C@@H](CCCCNC(=O)C1=C[C@@H](O)[C@@H](O)[C@H](O)C1)NC(=O)[C@H](Cc1ccc(O)cc1)N(C)C(=O)[C@H](CO)NC(=O)[C@@H](Cc1cccnc1)NC(=O)[C@@H](Cc1ccc(Cl)cc1)NC(=O)[C@@H](Cc1ccc2ccccc2c1)NC(=O)CNC(=O)C1=C[C@@H](O)[C@@H](O)[C@H](O)C1)C(=O)N[C@@H](CCCNC(=N)N)C(=O)N1CC[C@H]1C(=O)N[C@H](C)C(N)=O` [Example 19, N-Shikimyl-Gly-D2Nal-D4ClPhe-D3Pal-Ser-NMeTyr-DLys(Shik)-Leu-Arg-Aze-DAlaNH2] (Shikimoyl-G[d2Nal][dPhe(4-Cl)][d3Pal]S[NMeY][dK](Shikimoyl)LR[Aze][dA]-NH2) here?
**A.** 0.0407 nM

**Q.** How did the Kb turn out when `CC(C)C[C@H](NC(=O)[C@@H](CCCCNC(=O)CNC(=O)CNC(=O)c1cccnc1)NC(=O)[C@H](Cc1ccc(O)cc1)N(C)C(=O)[C@H](CO)NC(=O)[C@@H](Cc1cccnc1)NC(=O)[C@@H](Cc1ccc(Cl)cc1)NC(=O)[C@@H](Cc1ccc2ccccc2c1)NC(=O)CNC(=O)C1=C[C@@H](O)[C@@H](O)[C@H](O)C1)C(=O)N[C@@H](CCCNC(=N)N)C(=O)N1CCC[C@H]1C(=O)N[C@H](C)C(N)=O` [Example 20, N-Shikimyl-Gly-D2Nal-D4ClPhe-D3Pal-Ser-NMeTyr-DLys(GlyGlyNic)-Leu-Arg-Pro-DAlaNH2] (Shikimoyl-G[d2Nal][dPhe(4-Cl)][d3Pal]S[NMeY][dK]([Gly-Gly-Nicotinoyl])LRP[dA]-NH2) was run?
**A.** 0.0263 nM

**Q.** With `CC(C)C[C@H](NC(=O)[C@@H](CCCCNC(=O)CNC(=O)[C@@H](O)[C@@H](O)[C@H](O)[C@@H](O)CO)NC(=O)[C@H](Cc1ccc(O)cc1)N(C)C(=O)[C@H](CO)NC(=O)[C@@H](Cc1cccnc1)NC(=O)[C@@H](Cc1ccc(Cl)cc1)NC(=O)[C@@H](Cc1ccc2ccccc2c1)NC(=O)CNC(=O)[C@@H](O)[C@@H](O)[C@H](O)[C@@H](O)CO)C(=O)N[C@@H](CCCNC(=N)N)C(=O)N1CCC[C@H]1C(=O)N[C@H](C)C(N)=O` [Example 21, N-(L-Gulonyl)-Gly-D2Nal-D4ClPhe-D3Pal-Ser-NMeTyr-DLys(Gly-L-Gulonyl)-Leu-Arg-Pro-DAlaNH2] (X4-G[d2Nal][dPhe(4-Cl)][d3Pal]S[NMeY][dK]([Gly-X4])LRP[dA]-NH2) as the compound, how does the Kb read?
**A.** 0.0316 nM

**Q.** Which Kb does the source give for `CC(C)C[C@H](NC(=O)[C@@H](CCCCNC(=O)CNC(=O)C1=C[C@@H](O)[C@@H](O)[C@H](O)C1)NC(=O)[C@H](Cc1ccc(O)cc1)N(C)C(=O)[C@H](CO)NC(=O)[C@@H](Cc1cccnc1)NC(=O)[C@@H](Cc1ccc(Cl)cc1)NC(=O)[C@@H](Cc1ccc2ccccc2c1)NC(=O)CNC(=O)c1cccnc1)C(=O)N[C@@H](CCCNC(=N)N)C(=O)N1CCC[C@H]1C(=O)N[C@H](C)C(N)=O` [Example 22, N-Nicotinyl-Gly-D2Nal-D4ClPhe-D3Pal-Ser-NMeTyr-DLys(Gly-Shik)-Leu-Arg-Pro-DAlaNH2] (Nicotinoyl-G[d2Nal][dPhe(4-Cl)][d3Pal]S[NMeY][dK]([Gly-Shikimoyl])LRP[dA]-NH2) here?
**A.** 0.00339 nM

**Q.** For `CC[C@H](C)[C@H](NC(=O)[C@@H](CCCCNC(=O)C1=C[C@@H](O)[C@@H](O)[C@H](O)C1)NC(=O)[C@H](Cc1ccc(O)cc1)N(C)C(=O)[C@H](CO)NC(=O)[C@@H](Cc1cccnc1)NC(=O)[C@@H](Cc1ccc(Cl)cc1)NC(=O)[C@@H](Cc1ccc2ccccc2c1)NC(=O)CNC(=O)c1cccnc1)C(=O)N[C@@H](CCCNC(=N)N)C(=O)N1CCC[C@H]1C(=O)N[C@H](C)C(N)=O` [Example 23a, N-Nicotinyl-Gly-D2Nal-D4ClPhe-D3Pal-Ser-NMeTyr-DLys(Shik)-Ile-Arg-Pro-DAlaNH2] (Nicotinoyl-G[d2Nal][dPhe(4-Cl)][d3Pal]S[NMeY][dK](Shikimoyl)IRP[dA]-NH2), which Kb is on record?
**A.** 0.0195 nM

**Q.** `CC(C)C[C@@H](C(=O)N[C@@H](CCCNC(=N)N)C(=O)N1CCC[C@H]1C(=O)N[C@H](C)C(N)=O)N(C)C(=O)[C@@H](CCCCNC(=O)C1=C[C@@H](O)[C@@H](O)[C@H](O)C1)NC(=O)[C@H](Cc1ccc(O)cc1)N(C)C(=O)[C@H](CO)NC(=O)[C@@H](Cc1cccnc1)NC(=O)[C@@H](Cc1ccc(Cl)cc1)NC(=O)[C@@H](Cc1ccc2ccccc2c1)NC(=O)CNC(=O)c1cccnc1` [Example 23b, N-Nicotinyl-Gly-D2Nal-D4ClPhe-D3Pal-Ser-NMeTyr-DLys(Shikimyl)-NMeLeu-Arg-Pro-DAlaNH2] (Nicotinoyl-G[d2Nal][dPhe(4-Cl)][d3Pal]S[NMeY][dK](Shikimoyl)[NMeL]RP[dA]-NH2) was tested. Which Kb did it give?
**A.** 0.0186 nM
